How the values were obtained:
[1] = tested on: digestive lipase solution (mixture of pancreatic lipase, intestinal lipase, and the like) from rat intestinal acetone powder; experiment: Test 1: digestive lipase activity inhibition test with linoleic acid and oleic acid (Lipase Kit S, absorbance 412 nm); type: biochemical; settings: DMSO solution
Method: 30 mL of 0.1 M citrate buffer solution (pH 6.0) was added to 30 mg of rat intestinal acetone powder (manufactured by SIGMA Corporation), shaken in ice for 1 hour, and centrifuged at 4° C. and 10,000 rpm for 45 minutes, to obtain a digestive lipase solution. The digestive lipase solution is a mixture of pancreatic lipase, intestinal lipase, and the like. […] After that, 25 μL of the substrate solution was added, and the reaction was carried out at 30° C. for 30 minutes in the dark. After that, 700 μL of a reaction stop solution was added, and the absorbance at 412 nm was measured for this solution. As the coloring solution, the substrate solution, the esterase inhibitor, and the reaction stop solution, those attached to Lipase Kit S (manufactured by SB Bioscience Co., Ltd.) were used. A control was prepared in a new 1.5 mL capacity tube for the purpose of measuring the absorbance of the above samples and reagents themselves. […] After that, 700 μL of reaction stop solution and 25 μL of substrate solution were added, and the absorbance at 412 nm was measured. In addition, blank a was prepared in the same manner as in the activity evaluation except that only DMSO was added instead of the DMSO solution of each sample, and blank b was prepared in the same manner as the control by adding only DMSO (control blank). Absorbance at 412 nm was also measured for blank a and blank b. Digestive lipase activity when each sample was added was calculated by the following equation. Digestive lipase activity (%)=100×(absorbance of each sample−absorbance of control)/(absorbance of blank a−absorbance of blank b) (Results)

[2] = tested on: digestive lipase solution (mixture of pancreatic lipase, intestinal lipase, and the like) from rat intestinal acetone powder; experiment: Test 2: digestive lipase activity inhibition test with mixture of linoleic acid and oleic acid; type: biochemical; settings: 0.009 mg/mL linoleic acid aqueous solution, final concentration
Method: A control was prepared in a new 1.5 mL capacity tube for the purpose of measuring the absorbance of the above samples and reagents themselves. […] After that, 700 μL of reaction stop solution and 25 μL of substrate solution were added, and the absorbance at 412 nm was measured. […] Absorbance at 412 nm was also measured for blank a and blank b.
First, the digestive lipase activity inhibition rate of each sample was calculated according to the equation shown below.

`CCCCC/C=C\C/C=C\CCCCCCCC(=O)O` [linoleic acid] was tested, and the Digestive lipase activity ([1]; 0.19 mg/mL final concentration, 30° C. 30 minutes) was 8.9% and the “Digestive lipase activity inhibition rate” value [2] was 9.6%.
`CCCCCCCC/C=C\CCCCCCCC(=O)O` [oleic acid] was tested, and the Digestive lipase activity ([1]; 0.16 mg/mL final concentration, 30° C. 30 minutes) was 7.1%.
For `c1cc2c(cc1[C@H]1OC[C@H]3[C@@H]1CO[C@@H]3c1ccc3c(c1)OCO3)OCO2` [sesamin, reference compound], the Digestive lipase activity ([1]; 0.044 mg/mL final concentration, for comparison) was 110.9%.

— patent US12653801B2, “Digestive lipase activity inhibitor, blood triglyceride concentration increase inhibitor, and fat absorption inhibitor” (Pharma Foods International Co., Ltd., priority 2020, dated 2026)
